{
  "source": "patent US10590064B2",
  "about": "“Crystals of alanine N-acetic acid precursors, process to prepare them and their use” (NOURYON CHEMICALS INTERNATIONAL B.V., priority 2014, dated 2020)",
  "type_in_all_cases": "physicochemical",
  "key": {"[1]": {"assay": "Solubility of D,L-alanine diacetonitrile crystals in demi-water at various temperatures", "conditions": "overnight", "experimental": "(§1) The solubility of D,L-alanine diacetonitrile was determined at various temperatures to get a clear understanding of the solubility and stability of D,L-alanine diacetonitrile. The D,L-alanine diacetonitrile crystals obtained in Example 1 were added to demi-water and the samples in well-closed bottles were placed in ovens/refrigerators at various temperatures overnight."}, "[2]": {"assay": "Stability (hydrolysis) of D,L-alanine diacetonitrile in water, aqueous layers analyzed by NMR", "conditions": "demi-water, closed bottles, overnight at various temperatures", "experimental": "as §1"}, "pH of 1 wt % in water": {"assay": "pH of 1 wt % in water", "experimental": "Additionally the pH was measured as 1 wt % D,L-alanine diacetonitrile in water and this pH was compared to the pH of 1 wt % […]."}},
  "data": [
    {"compound": "D,L-alanine diacetonitrile", "values": [
      {"measurement": "Solubility, wt % D,L-alanine diacetonitrile", "setting": "[1]; 0° C.", "result": 6, "unit": "wt %"},
      {"measurement": "Solubility, wt % D,L-alanine diacetonitrile", "setting": "[1]; 5° C.", "result": 7.9, "unit": "wt %"},
      {"measurement": "Solubility, wt % D,L-alanine diacetonitrile", "setting": "[1]; 20° C.", "result": 40.7, "unit": "wt %"},
      {"measurement": "Solubility, wt % D,L-alanine diacetonitrile", "setting": "[1]; 30° C.", "result": 75, "unit": "wt %"},
      {"measurement": "Solubility, wt % D,L-alanine diacetonitrile", "setting": "[1]; 40° C.", "result": 82.5, "unit": "wt %"},
      {"measurement": "Solubility, wt % D,L-alanine diacetonitrile", "setting": "[1]; 50° C.", "result": 95, "unit": "wt %"},
      {"measurement": "Hydrolysis of D,L-alanine diacetonitrile in aqueous layer (NMR)", "setting": "[2]", "result": "no or very little hydrolysis took place"},
      {"measurement": "pH (1% in water)", "setting": "pH of 1 wt % in water", "result": "pH = 2.2"}
    ]},
    {"compound": "CC(C(=O)[O-])N(CC#N)CC#N.[Na+]", "note": "(racemic) [D,L-alanine diacetonitrile-Na, sodium salt of D,L-alanine diacetonitrile]", "values": [
      {"measurement": "pH (1% in water)", "setting": "pH of 1 wt % in water", "result": "pH = 3.3."}
    ]}
  ]
}
